Biological target: T1, IRAK4 (Homo sapiens, UniProt Q9NWZ3)
T1 sequence (Q9NWZ3 1-460): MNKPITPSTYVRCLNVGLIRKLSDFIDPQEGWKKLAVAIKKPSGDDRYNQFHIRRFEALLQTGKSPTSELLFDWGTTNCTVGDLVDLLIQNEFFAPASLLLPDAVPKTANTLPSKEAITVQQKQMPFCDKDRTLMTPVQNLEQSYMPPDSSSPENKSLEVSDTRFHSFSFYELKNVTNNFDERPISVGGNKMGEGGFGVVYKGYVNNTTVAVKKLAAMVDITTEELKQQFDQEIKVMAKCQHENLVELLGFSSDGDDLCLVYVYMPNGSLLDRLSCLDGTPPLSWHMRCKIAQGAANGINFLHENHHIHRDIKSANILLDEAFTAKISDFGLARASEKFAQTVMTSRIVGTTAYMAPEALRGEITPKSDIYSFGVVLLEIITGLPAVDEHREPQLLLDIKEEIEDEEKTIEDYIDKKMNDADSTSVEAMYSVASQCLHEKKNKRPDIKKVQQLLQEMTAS
Test: IRAK-4 activity inhibition assay (Caliper)
Assay type: biochemical
Conditions: 37 μM ATP, 3.5 nM IRAK4
Method: A 1× kinase base buffer was prepared from 50 mM HEPES, pH 7.5 and 0.0015% Brij-35. A stop buffer was prepared from 100 mM HEPES, pH 7.5, 0.015% Brij-35, 0.2% Coating Reagent #3, and 50 mM EDTA.
Test compound was diluted to 50× of the final desired highest inhibitor concentration in reaction by 100% DMSO. 100 μl of this compound dilution was transferred to a well in a 96-well plate.
Test compound was serially diluted by transferring 30 μl to 60 μl of 100% DMSO in the next well and so forth for a total of 10 concentrations. 100 μl of 100% DMSO was added to two empty wells for no compound control and no enzyme control in the same 96-well plate.
A new 96-well plate was marked as intermediate plate. 5 μl of compound serial dilution was transferred from source plate to the corresponding wells of the intermediate plate. 45 μl of 1× kinase base buffer (KB buffer) was added to each well of the intermediate plate. The intermediate plate was placed for 10 min on a shaker.
5 μl of each well was transferred from the 96-well intermediate plate to a 384-well plate in duplicates. […] A2 of the 96-well plate is transferred to A3 and A4 of the 384-well plate, and so on.
IRAK4 and DTT in 1× kinase base buffer was added.
Assay plate already contained 5 μl of compound in 10% DMSO. Added 10 μl of 2.5× enzyme solution to each well of the 384-well assay plate, except no enzyme control wells. […] Added 10 μl of 1× kinase base buffer to no enzyme control wells in the assay plate. Incubated at room temperature for 10 min.
Added 10 μl of 2.5× peptide solution to each well of the 384-well assay plate. […] Incubated at 28° C. for 40 minutes. Added 25 μl of stop buffer to stop reaction. Collected data on Caliper.
Copied conversion % data from Caliper program. Converted conversion % values to percent inhibition values. Percent inhibition=(max−conversion %)/(max−min)*100, where “max” means the conversion % of DMSO control and “min” means the conversion % of no enzyme control.
The compound numbers correspond to the compound numbers in Table 1. […] “NA” stands for “not assayed.”

| Compound | IC50 |
| --- | --- |
| CN(C)[C@H]1CC[C@H](Oc2ncnc3sc4c(c23)C(C)(C)CC4)CC1 [Compound I-7, (1r,4r)-4-((5,5-dimethyl-6,7-dihydro-5H-cyclopenta[4,5]thieno[2,3-d]pyrimidin-4-yl)oxy)-N,N-dimethylcyclohexanamine] | < 5 µM |
| CN(C)[C@H]1CC[C@H](Nc2ncnc3sc4c(c23)C(CC(=O)NCCO)CC4)CC1 (stereo partly shown) [Compound I-26, 2-(12-[[4-(dimethylamino)cyclohexyl]amino]-7-thia-9,11-diazatricyclo[6.4.0.0̂[2,6]]dodeca-1(8),2(6),9,11-tetraen-3-yl)-N-(2-hydroxyethyl)acetamide] | 5 to 20 µM |
| CN(C)[C@H]1CC[C@H](Oc2ncnc3sc4c(c23)[C@@H](CCc2ncco2)CC4)CC1 [Compound I-63, N,N-dimethyl-4-[[(3S)-3-[2-(1,3-oxazol-2-yl)ethyl]-7-thia-9,11-diazatricyclo[6.4.0.0[2,6]]dodeca-1(8),2(6),9,11-tetraen-12-yl]oxy]cyclohexan-1-amine] | < 5 µM |
| CC(=O)N1CCc2sc3ncnc(N[C@H]4CC[C@H](N5CCOCC5)CC4)c3c2C1 [Compound I-172, 1-(3-[[4-(morpholin-4-yl)cyclohexyl]amino]-8-thia-4,6,12-triazatricyclo[7.4.0.0-[2,7]]trideca-1(9),2(7),3,5-tetraen-12-yl)ethan-1-one] | 5 to 20 µM |
| NC(=O)[C@@H](O)C[C@H]1CCc2sc3ncnc(O[C@H]4CC[C@H](N5CCCC5)CC4)c3c21 [Compound I-226, (S)-2-hydroxy-3-((R)-4-(((1r,4R)-4-(pyrrolidin-1-yl)cyclohexyl)oxy)-6,7-dihydro-5H-cyclopenta[4,5]thieno[2,3-d]pyrimidin-5-yl)propanamide] | < 5 µM |
| CN(C)[C@H]1CC[C@H](Oc2nc(Nc3ccc(N4CCNCC4)cc3)nc3sc4c(c23)C(CC(N)=O)CC4)CC1 (mixture of isomers) [Compound I-205, 2-(12-[[4-(dimethylamino)cyclohexyl]oxy]-10-[[4-(piperazin-1-yl)phenyl]amino]-7-thia-9, 11-diazatricyclo[6.4.0.0[2,6]]dodeca-1(12),2(6),8, 10-tetraen-3-yl)acetamide] | < 5 µM |
| CC[S@+]([O-])C[C@H]1CCc2sc3ncnc(O[C@H]4CC[C@H](N(C)C)CC4)c3c21 (single isomer, unassigned) [Compound I-45] | < 5 µM |
| NC(=O)C1CCc2sc3ncnc(N[C@H]4CC[C@H](N5CCOCC5)CC4)c3c2C1 (stereo partly shown) [Compound I-203, 3-[[4-(morpholin-4-yl)cyclohexyl]amino]-8-thia-4,6-diazatricyclo[7.4.0.0[2,7]]trideca-1(9),2,4,6-tetraene-12-carboxamide] | < 5 µM |
| CN(C)[C@H]1CC[C@H](Nc2ncnc3sc4c(c23)C(C(=O)NCCCO)CC4)CC1 (stereo partly shown) [Compound I-28, 12-[[4-(dimethylamino)cyclohexyl]amino]-N-(3-hydroxypropyl)-7-thia-9,11-diazatricyclo[6.4.0.0̂[2,6]]dodeca-1(12),2(6),8,10-tetraene-3-carboxamide] | 20 to 50 µM |
| C#CCOC[C@H]1CCc2sc3ncnc(O[C@H]4CC[C@H](N(C)C)CC4)c3c21 [Compound I-49, N,N-dimethyl-4-[[(3S)-3-[(prop-2-yn-1-yloxy)methyl]-7-thia-9,11-diazatricyclo[6.4.0.0[2,6]]dodeca-1(8),2(6),9,11-tetraen-12-yl]oxy]cyclohexan-1-amine] | < 5 µM |
| NC(=O)C(O)C[C@H]1CCc2sc3ncnc(N[C@H]4CC[C@H](N5CCOCC5)CC4)c3c21 (mixture of isomers) [Compound I-118, 2-hydroxy-3-((R)-4-(((1r,4R)-4-morpholinocyclohexyl)amino)-6,7-dihydro-5H-cyclopenta[4,5]thieno[2,3-d]pyrimidin-5-yl)propanamide] | < 5 µM |
| CN(C)[C@H]1CC[C@H](Nc2ncnc3sc4c(c23)C(CC(=O)O)CC4)CC1 (stereo partly shown) [Compound I-18] | 5 to 20 µM |
| CC[C@H](O)C[C@H]1CCc2sc3ncnc(N[C@H]4CC[C@H](N(C)C)CC4)c3c21 [Compound I-54] | < 5 µM |
| CC[C@@H](C[C@H]1CCc2sc3ncnc(O[C@H]4CC[C@H](N(C)C)CC4)c3c21)OC [Compound I-119, (1R,4r)-4-(((R)-5-((S)-2-methoxybutyl)-6,7-dihydro-5H-cyclopenta[4,5]thieno[2,3-d]pyrimidin-4-yl)oxy)-N,N-dimethylcyclohexanamine] | < 5 µM |
| CC[C@H](O)C[C@H]1CCc2sc3ncnc(O[C@H]4CC[C@H](N(C)CC(=O)N5CCCC5)CC4)c3c21 [Compound I-72, 2-(((1R,4r)-4-(((R)-5-((S)-2-hydroxybutyl)-6,7-dihydro-5H-cyclopenta[4,5]thieno[2,3-d]pyrimidin-4-yl)oxy)cyclohexyl)(methyl)amino)-1-(pyrrolidin-1-yl)ethanone] | < 5 µM |
| CN(C)[C@H]1CC[C@H](Nc2ncnc3sc4c(c23)C(C(=O)O)CC4)CC1 (stereo partly shown) [Compound I-5, 4-(((1s,4s)-4-(dimethylamino)cyclohexyl)amino)-6,7-dihydro-5H-cyclopenta[4,5]thieno[2,3-d]pyrimidine-5-carboxylic acid] | 5 to 20 µM |

The next lines start with the values.

| IC50 | Compound |
| --- | --- |
| < 5 µM | CN[C@]1(C)CC[C@@H](Oc2ncnc3sc4c(c23)[C@@H](CC(N)=O)CC4)CC1 [Compound I-156, 2-[(3R)-12-[[4-methyl-4-(methylamino)cyclohexyl]oxy]-7-thia-9,11-diazatricyclo[6.4.0.0[2,6]]dodeca-1(8),2(6),9,11-tetraen-3-yl]acetamide] |
| < 5 µM | CN(C)[C@H]1CC[C@H](Oc2ncnc3sc4c(c23)[C@@H](CO)CC4)CC1 [Compound I-19, ((R)-4-(((1r,4R)-4-(dimethylamino)cyclohexyl)oxy)-6,7-dihydro-5H-cyclopenta[4,5]thieno[2,3-d]pyrimidin-5-yl)methanol] |
| < 5 µM | CC[C@]1(N(C)C)CC[C@H](Oc2ncnc3sc4c(c23)[C@@H](CC(N)=O)CC4)CC1 [Compound I-95, 2-[(3R)-12-[[4-(dimethylamino)-4-ethylcyclohexyl]oxy]-7-thia-9,11-diazatricyclo[6.4.0.0[2,6]]dodeca-1(8),2(6),9,11-tetraen-3-yl]acetamide] |
| < 5 µM | CC[C@H](O)C[C@H]1CCc2sc3ncnc(O[C@H]4CC[C@H](N(C)C)CC4)c3c21 [Compound I-107, (2S)-1-[(3R)-12-[[4-(dimethylamino)cyclohexyl]oxy]-7-thia-9,11-diazatricyclo[6.4.0.0[2,6]]dodeca-1(8),2(6),9,11-tetraen-3-yl]butan-2-ol] |
| > 50 µM | CN(C)[C@H]1CC[C@H](Oc2ncnc3sc4c(c23)C(C(=O)O)CC4)CC1 (stereo partly shown) [Compound I-8, 4-(((1r,4r)-4-(dimethylamino)cyclohexyl)oxy)-6,7-dihydro-5H-cyclopenta[4,5]thieno[2,3-d]pyrimidine-5-carboxylic acid] |
| < 5 µM | COCCN[C@H]1CC[C@H](Oc2ncnc3sc4c(c23)[C@@H](CC(N)=O)CC4)CC1 [Compound I-133, 2-[(3R)-12-([4-[(2-methoxyethyl)amino]cyclohexyl]oxy)-7-thia-9,11-diazatricyclo[6.4.0.0[2,6]]dodeca-1(12),2(6),8,10-tetraen-3-yl]acetamide] |
| 5 to 20 µM | CN[C@H]1CC[C@H](Oc2ncnc3sc4c(c23)[C@@H](CC(=O)NC[C@@H](C)O)CC4)CC1 (stereo in doubt) [Compound I-151, N-[(2R)-2-hydroxypropyl]-2-[(3R)-12-[[4-(methylamino)cyclohexyl]oxy]-7-thia-9,11-diazatricyclo[6.4.0.0[2,6]]dodeca-1(12),2(6),8,10-tetraen-3-yl]acetamide] |
| < 5 µM | CN(C)[C@H]1CC[C@H](Oc2ncnc3sc4c(c23)C(CCO)CC4)CC1 (stereo partly shown) [Compound I-21, 2-(4-(((1r,4r)-4-(dimethylamino)cyclohexyl)oxy)-6,7-dihydro-5H-cyclopenta[4,5]thieno[2,3-d]pyrimidin-5-yl)ethanol] |
| < 5 µM | CN(C)[C@H]1CC[C@H](Oc2ncnc3sc4c(c23)[C@H](CCO)CC4)CC1 [Compound I-33, 2-[(3S)-12-[[4-(dimethylamino)cyclohexyl]oxy]-7-thia-9,11-diazatricyclo[6.4.0.0[2,6]]dodeca-1(12),2(6),8,10-tetraen-3-yl]ethan-1-ol] |

From patent US20160193216A1 (Nimbus Iris, Inc., priority 2012, published 2016)
